Measured values reported in ChEMBL document CHEMBL2176960, “Mechanism-based inactivation (MBI) of cytochrome P450 enzymes: structure-activity relationships and discovery strategies to mitigate drug-drug interaction risks” (J Med Chem, 2012).
Blank lines part the entries; values can stand above or below the compound they belong to.

Tests used:
CYP3A4 [1] = target: T1, CYP3A4 (Homo sapiens, UniProt P08684); test: (§1) Time dependent inhibition of CYP3A4 in human liver microsomes; assay type: ADME, Microsome; conditions: human, liver microsomes
T1 sequence (P08684 whole entry): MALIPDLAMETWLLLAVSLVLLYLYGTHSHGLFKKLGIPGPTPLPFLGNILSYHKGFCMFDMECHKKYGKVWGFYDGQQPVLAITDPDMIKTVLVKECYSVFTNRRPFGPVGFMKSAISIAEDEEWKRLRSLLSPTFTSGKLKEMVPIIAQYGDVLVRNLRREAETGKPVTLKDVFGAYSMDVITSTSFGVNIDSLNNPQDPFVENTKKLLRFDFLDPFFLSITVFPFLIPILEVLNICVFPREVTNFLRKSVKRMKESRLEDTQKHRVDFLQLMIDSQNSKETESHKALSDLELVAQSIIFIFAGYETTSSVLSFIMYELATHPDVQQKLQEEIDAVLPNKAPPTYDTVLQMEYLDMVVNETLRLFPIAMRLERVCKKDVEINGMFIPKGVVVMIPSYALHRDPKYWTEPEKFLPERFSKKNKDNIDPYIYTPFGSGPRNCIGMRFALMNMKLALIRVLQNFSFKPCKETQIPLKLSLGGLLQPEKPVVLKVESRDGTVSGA

Cytochrome P450 3A4 [2] = target: T2, Cytochrome P450 3A4 (Homo sapiens, UniProt P08684); test: as §1; assay type: ADME, Microsome
T2 sequence (P08684 whole entry): as above

CYP3A4 [3] = target: T1, CYP3A4; test: Inhibition of CYP3A4-mediated testosterone 6 beta hydroxylation in human liver microsome by Dixon plot analysis; assay type: ADME; conditions: liver microsomes, probe testosterone (6 beta-hydroxylation)
Cytochrome P450 3A4 [4] = target: T2, Cytochrome P450 3A4; test: Time dependent inhibition of CYP3A4-mediated testosterone-6-beta hydroxylation in human liver microsome; assay type: ADME
Cytochrome P450 2C8 [5] = target: T3, Cytochrome P450 2C8 (Homo sapiens, UniProt P10632); test: (§2) Time dependent inhibition of CYP2C8 in human liver microsomes; assay type: ADME, Microsome
T3 sequence (P10632 whole entry): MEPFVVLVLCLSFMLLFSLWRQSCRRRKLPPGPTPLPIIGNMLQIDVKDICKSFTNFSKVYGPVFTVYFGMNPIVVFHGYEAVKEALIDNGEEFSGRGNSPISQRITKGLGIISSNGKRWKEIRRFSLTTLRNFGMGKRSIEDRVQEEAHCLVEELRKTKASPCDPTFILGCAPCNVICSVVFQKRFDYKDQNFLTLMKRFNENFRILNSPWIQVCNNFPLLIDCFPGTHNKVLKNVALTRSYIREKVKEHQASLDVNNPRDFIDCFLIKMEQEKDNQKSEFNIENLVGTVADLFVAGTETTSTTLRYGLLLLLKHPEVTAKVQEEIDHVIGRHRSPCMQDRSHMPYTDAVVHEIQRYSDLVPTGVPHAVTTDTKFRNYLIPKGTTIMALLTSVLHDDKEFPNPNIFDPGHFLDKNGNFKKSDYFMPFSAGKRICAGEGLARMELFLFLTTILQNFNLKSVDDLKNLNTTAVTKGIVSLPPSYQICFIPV

CYP2C8 = target: T4, CYP2C8 (Homo sapiens, UniProt P10632); test: as §2; assay type: ADME, Microsome; conditions: human, liver microsomes
T4 sequence (P10632 whole entry): T3 sequence (P10632 whole entry)

Cytochrome P450 2C8 [6] = target: T3, Cytochrome P450 2C8; test: Inhibition of CYP2C8; assay type: ADME
Cytochrome P450 2C8 [7] = target: T3, Cytochrome P450 2C8; test: Inhibition of CYP2C8 in human liver microsomes in presence of NADPH; assay type: ADME, Microsome
[8] = Lipophilicity, log D of the compound; assay type: physicochemical; conditions: octanol/water
[9] = Half life in human; assay type: ADME, organism-based; conditions: in vivo
[10] = Oral bioavailability in human; assay type: ADME, organism-based; conditions: in vivo
CYP3A4 [11] = target: T1, CYP3A4; test: (§3) Inhibition of CYP3A4 in human liver microsomes in presence of NADPH; assay type: ADME, Microsome; conditions: human, liver microsomes
Cytochrome P450 3A4 [12] = target: T2, Cytochrome P450 3A4; test: as §3; assay type: ADME, Microsome
Homo sapiens [13] = species: Homo sapiens; test: Inhibition of CYP2B6 in human assessed as increase of bupropion systemic exposure; assay type: ADME, organism-based; design: scale not given: the % may be the effect or the level left; conditions: in vivo
Homo sapiens [14] = species: Homo sapiens; test: Inhibition of CYP2B6 in human assessed as decrease of hydroxybupropion metabolite systemic exposure; assay type: ADME, organism-based; design: scale not given: the % may be the effect or the level left; conditions: in vivo
Cytochrome P450 2C8 [15] = target: T3, Cytochrome P450 2C8; test: Reversible inhibition of CYP2C8 in human liver microsomes; assay type: ADME, Microsome
Cytochrome P450 2C9 = Cytochrome P450 2C9 (Homo sapiens, UniProt P11712); test: Reversible inhibition of CYP2C9 in human liver microsomes; assay type: ADME, Microsome
Sequence of Cytochrome P450 2C9 (P11712 whole entry): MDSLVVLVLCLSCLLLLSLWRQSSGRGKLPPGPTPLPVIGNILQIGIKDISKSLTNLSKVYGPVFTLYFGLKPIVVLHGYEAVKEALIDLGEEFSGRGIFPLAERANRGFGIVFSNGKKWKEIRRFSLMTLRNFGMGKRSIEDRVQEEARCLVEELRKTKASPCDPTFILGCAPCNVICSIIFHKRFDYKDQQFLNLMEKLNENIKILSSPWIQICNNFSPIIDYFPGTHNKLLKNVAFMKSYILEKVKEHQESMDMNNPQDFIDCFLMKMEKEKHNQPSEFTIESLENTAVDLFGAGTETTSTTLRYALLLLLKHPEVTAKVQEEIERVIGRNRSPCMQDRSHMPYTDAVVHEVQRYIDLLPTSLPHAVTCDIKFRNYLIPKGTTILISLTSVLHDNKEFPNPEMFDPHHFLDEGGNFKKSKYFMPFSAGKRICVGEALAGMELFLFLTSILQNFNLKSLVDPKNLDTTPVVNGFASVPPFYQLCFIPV

CYP3A4 [16] = target: T1, CYP3A4; test: (§4) Time dependent inhibition of CYP3A4; assay type: ADME
Cytochrome P450 3A4 [17] = target: T2, Cytochrome P450 3A4; test: as §4; assay type: ADME
[18] = Clearance in human; assay type: ADME, organism-based; conditions: in vivo
Cytochrome P450 2C19 = Cytochrome P450 2C19 (Homo sapiens, UniProt P33261); test: (§5) Time dependent inhibition of CYP2C19
Sequence of Cytochrome P450 2C19 (P33261 whole entry): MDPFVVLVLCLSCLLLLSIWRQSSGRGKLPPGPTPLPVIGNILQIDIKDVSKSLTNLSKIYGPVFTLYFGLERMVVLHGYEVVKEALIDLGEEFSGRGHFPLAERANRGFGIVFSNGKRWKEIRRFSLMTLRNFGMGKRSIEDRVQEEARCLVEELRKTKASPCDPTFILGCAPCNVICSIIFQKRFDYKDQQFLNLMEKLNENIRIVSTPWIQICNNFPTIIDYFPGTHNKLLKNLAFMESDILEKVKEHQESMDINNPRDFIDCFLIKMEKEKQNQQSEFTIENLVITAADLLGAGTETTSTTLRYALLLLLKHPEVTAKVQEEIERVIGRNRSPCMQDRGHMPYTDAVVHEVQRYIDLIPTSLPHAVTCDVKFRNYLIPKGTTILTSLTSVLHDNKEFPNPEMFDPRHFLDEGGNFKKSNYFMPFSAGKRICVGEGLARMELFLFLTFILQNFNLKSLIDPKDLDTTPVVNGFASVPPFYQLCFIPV

CYP2C19 = CYP2C19 (Homo sapiens, UniProt P33261); test: as §5
Sequence of CYP2C19 (P33261 whole entry): as above

SMILES: CC(C)CN(C[C@@H](O)[C@H](Cc1ccccc1)NC(=O)O[C@H]1CCOC1)S(=O)(=O)c1ccc(N)cc1
kinact (CYP3A4 [3]): 0.00983 s⁻¹
Ki (Cytochrome P450 3A4 [4]): 0.37 µM

SMILES: Cc1ccc(C)c(OCCCC(C)(C)C(=O)O[C@@H]2O[C@H](C(=O)O)[C@@H](O)[C@H](O)[C@H]2O)c1
Ki (Cytochrome P450 2C8 [5]): 20 µM
kinact (CYP2C8): 0.0035 s⁻¹
IC50 (Cytochrome P450 2C8 [6]): 4.1 µM
IC50 (Cytochrome P450 2C8 [7]): 1.8 µM

SMILES: COc1cc(CC(=O)O)ccc1Oc1ccc2[nH]c(C)cc2c1NS(=O)(=O)c1ccc(Cl)cc1Cl
kinact (CYP3A4 [11]): 0.00267 s⁻¹
Ki (Cytochrome P450 3A4 [12]): 18 µM

SMILES: CC(=O)Oc1cc2c(s1)CCN(C(C(=O)C1CC1)c1ccccc1F)C2 (stereo not given)
Activity (Homo sapiens [13]): 18%
Activity (Homo sapiens [14]): 23%

SMILES: O=c1n(CCCN2CCN(c3cccc(Cl)c3)CC2)nc2ccccn12 [TRAZODONE]
logD [8]: 1.58

SMILES: CC(C)(C)NC(=O)C1(C2CCCCC2)CCN(C(=O)[C@@H](Cc2ccc(Cl)cc2)NC(=O)[C@H]2CCc3ccccc3[C@H]2N)CC1
kinact (CYP3A4 [16]): 0.00133 s⁻¹
Ki (Cytochrome P450 3A4 [17]): 23 µM

SMILES: O=C1CCc2ccc(OCCCCN3CCN(c4cccc(Cl)c4Cl)CC3)cc2N1 [ARIPIPRAZOLE]
logD [8]: 5.54
bioavailability [10]: 87%
clearance [18]: 0.8 mL/min/kg

Second part, the compound after the results:

kinact (CYP3A4 [1]): 0.00383 s⁻¹
Ki (Cytochrome P450 3A4 [2]): 12 µM
SMILES: CN(c1ncccc1CNc1nc(Nc2ccc3c(c2)CC(=O)N3)ncc1C(F)(F)F)S(C)(=O)=O [PF-00562271]

logD [8]: 3.43
half-life [9]: 1 h
bioavailability [10]: 20%
SMILES: CCc1nn(CCCN2CCN(c3cccc(Cl)c3)CC2)c(=O)n1CCOc1ccccc1 [NEFAZODONE]

IC50 (Cytochrome P450 2C8 [15]): 95 µM
IC50 (Cytochrome P450 2C9): 9.6 µM
IC50 (Cytochrome P450 2C8 [6]): 28 µM
SMILES: Cc1ccc(C)c(OCCCC(C)(C)C(=O)O)c1 [GEMFIBROZIL]

Activity (Homo sapiens [13]): 85%
Activity (Homo sapiens [14]): 84%
SMILES: Clc1ccccc1CN1CCc2sccc2C1 [TICLOPIDINE]

Activity (Homo sapiens [13]): 60%
Ki (Cytochrome P450 2C19): 14.3 µM
kinact (CYP2C19): 0.000917 s⁻¹
Activity (Homo sapiens [14]): 52%
SMILES: COC(=O)[C@H](c1ccccc1Cl)N1CCc2sccc2C1 [CLOPIDOGREL]
